The values that follow come from patent publication US12325708B2, “Adenosine 2 receptor antagonists” (Nektar Therapeutics, priority 2019, dated 2025).

SMILES strings stand for the structures. pKi: −log10 of the molar value.

Data set [1] is described as follows: Brain-to-plasma ratio (B/P) after administration. In kind it is in vivo, Sprague-Dawley rats. As to conditions: Sprague-Dawley, rat, oral, 2.5 mg/kg; Table 6; brain-to-plasma ratio at 1 h. An excerpt: A similar unexpected result was obtained when the phenyl ring present on Compound 1 was replaced with a halogen substituted pyridine. The halogen was previously introduced on the phenyl ring with the aim of blocking a possible metabolic soft-spot, with similar results observed as for Compound 1 in terms of exposure, clearance and bioavailability (Compound 10 and Compound 15). The substituted pyridine ring was designed to modulate the lipophilicity and polar surface area, as well as to address metabolic soft-spot concerns. Clearance and bioavailability parameters remain similar between substituted phenyl and pyridine (Compound 4 and Compound 14) analogs, which span a range in cLogP of 2.7-3.2. It was therefore surprising the significant improvement in exposure and clearance observed for the more lipophilic Compound 19. […] A compound is commonly deemed to be a brain penetrant if the brain-to-blood/plasma concentration ratio (B/P) is greater than 0.04 using methods as known in the art (Schaffer, Annual Reports in Medicinal Chemistry, 45:55-70, 2010).
Plasma pharmacokinetic parameters were determined following oral (PO) administration of further compounds essentially as described in Example 28 with the results shown in Table 6.

Data set [2] has as its target T1, A2A receptor (Homo sapiens, UniProt P29274).
T1 construct: purchased
Briefly: Radioligand receptor binding assay, A2A receptor. As to conditions: cell membranes overexpressing A2A receptor, read-out: Potency Ki A2A. The method, then:
(§1) Using conventional receptor binding assay techniques, Compounds 1-24 were assayed to determine binding activity at the A2A, A1, and A3 receptors with the results shown in Table 7.
(§2) Receptor binding affinity of Compounds 1-24 was measured using radioligand binding assays using commercially obtained cell membranes prepared from cell lines overexpressing the A2A, A1, or A3 receptors. Briefly, cell membrane preparations from cells expressing the specific receptor were mixed with the appropriate [^3H]-labeled tracer for the specific receptor and the test compound or a known inhibitor of receptor-ligand binding. Following 60 min incubation at room temperature to allow receptor-ligand complex formation, the complexes were collected by filtration, washed with 50 mM Tris HCl (pH 7.5) to remove radioligand that was not receptor-bound, and the remaining radioactivity determined by liquid scintillation counting. Specific radioligand binding was calculated for each test compound concentration and IC50 values were determined by non-linear, regression analysis. Inhibition constants (Ki) were calculated using the equation of Cheng and Prusoff using the observed IC50 of the tested compound, the concentration of radioligand employed in the assay and the experimentally determined values for the Kd of the ligand.

In data set [3] the target is T2, A1 receptor (Homo sapiens, UniProt P30542).
T2 construct: purchased
T2 sequence (P30542 1-326): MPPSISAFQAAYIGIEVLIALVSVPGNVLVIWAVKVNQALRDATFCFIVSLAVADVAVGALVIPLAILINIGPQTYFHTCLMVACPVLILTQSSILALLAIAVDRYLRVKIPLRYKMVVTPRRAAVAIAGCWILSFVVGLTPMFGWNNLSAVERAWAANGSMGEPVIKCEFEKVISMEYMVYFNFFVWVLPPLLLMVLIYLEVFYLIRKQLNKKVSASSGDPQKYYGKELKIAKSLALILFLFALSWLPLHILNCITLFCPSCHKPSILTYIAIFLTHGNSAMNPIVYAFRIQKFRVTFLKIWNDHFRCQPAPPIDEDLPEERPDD
Briefly: Radioligand receptor binding assay, A1 receptor. The following applies: cell membranes overexpressing A1 receptor, read-out: Potency Ki A1. As for the experimental part: as §1, §2

Data set [4] is described as follows: Plasma pharmacokinetic parameters following intravenous (IV) or oral (PO) administration in rats. In kind it is in vivo, Sprague-Dawley rats. The following applies: male, Sprague-Dawley, rat, plasma, Table 6; for AUC / bioavailability: 2.5 mg/kg, oral (PO) administration essentially as described in Example 28; for clearance: intravenous, 0.5 mg/kg, essentially as described in Example 28; for bioavailability: po. The method, then: Adult male Sprague-Dawley rats (230-250 g) (Charles River Labs, Hollister, CA) were utilized for the study. There were 2 rats/group. All animals were food fasted overnight with water provided ad libitum at all times. Compounds 1, 4, 14 and 19 were synthesized as described in Examples 2, 17, 7, and 12, respectively, and formulated in injectable water.
(§3) The morning of each dosing, individual doses were calculated based on current body weights on the day of dosing. The jugular vein cannula (JVC) and the carotid artery cannula (CAC) were externalized, flushed with HEP/saline (10 IU/mL HEP/mL saline), plugged, and labeled to identify the jugular vein and the carotid artery. The IV group animals were dosed at 0.5 mg/kg of Compound 1, 4, 14 or 19, respectively, intravenously via the jugular vein, while the PO dose was administered 2.5 mg/kg of Compound 1, 4, 14 or 19, respectively, orally via gavage. For the IV group, immediately following the dose of test article, the dead volume of the catheter was flushed with 0.9% saline to ensure the animals received the full dose.
Approximately 0.2 mL of blood was collected per time point from JVC. Blood samples were collected at 2 (IV group only), 5, 15, 30, 60, 120, 240, 360, 420 (Compound 19 only), 480, 720 (Compound 19 only), and 1440 minutes via the CAC and transferred immediately into K2EDTA coated tubes pre-loaded 2 μl with quenching cocktail and placed on wet ice. The samples were centrifuged within 30 min after collection at 10,000 RPM for 5 minutes and the resulting plasma was separated. Plasma was transferred into microfuge tubes and placed on dry ice immediately. The plasma samples were stored at approximately −70° C. until bioanalysis.
Plasma samples were extracted by protein precipitation with acetonitrile containing 0.1% formic acid and doxepin for Compound 1 (available from Sigma-Aldrich) or SCH58261 for Compounds 4, 14 and 19 (available from Sigma-Aldrich) as an internal standard. Following vortex and centrifugation, supernatant was diluted 3-fold with water containing 0.1% formic acid and analyzed by LC-MS/MS.
Pharmacokinetic parameters (PK) were determined by non-compartmental analysis (NCA) using Phoenix 64 WinNonlin (version 8) and Dotmatics (version 5.0). Nominal doses and time points were used for the analysis.
The following PK parameters were estimated using plasma concentration-time profile of each animal with the results presented in Table 3: • AUCinf Area under the concentration-time from zero to time infinity • AUClast Area under the concentration-time from zero to time of last concentration value • F Bioavailability • CL Total body clearance • Cmax Maximum (peak) concentration • MRTlast Mean residence time to last observable concentration • Tmax Time to reach maximum or peak concentration following administration • Vss Volume of distribution at steady state
Adult male Sprague-Dawley rats (230-250 g) (Charles River Labs, Hollister, CA) were utilized for the study. There were 2 rats/group. All animals were food fasted overnight with water provided ad libitum at all times. Compound 1 was synthesized as described in Example 2 and formulated in injectable water.
as §3, with “1” for “1, 4, 14 or 19, respectively,”
Approximately 0.2 mL of blood was collected per time point from JVC. […]

T1 sequence (P29274 whole entry): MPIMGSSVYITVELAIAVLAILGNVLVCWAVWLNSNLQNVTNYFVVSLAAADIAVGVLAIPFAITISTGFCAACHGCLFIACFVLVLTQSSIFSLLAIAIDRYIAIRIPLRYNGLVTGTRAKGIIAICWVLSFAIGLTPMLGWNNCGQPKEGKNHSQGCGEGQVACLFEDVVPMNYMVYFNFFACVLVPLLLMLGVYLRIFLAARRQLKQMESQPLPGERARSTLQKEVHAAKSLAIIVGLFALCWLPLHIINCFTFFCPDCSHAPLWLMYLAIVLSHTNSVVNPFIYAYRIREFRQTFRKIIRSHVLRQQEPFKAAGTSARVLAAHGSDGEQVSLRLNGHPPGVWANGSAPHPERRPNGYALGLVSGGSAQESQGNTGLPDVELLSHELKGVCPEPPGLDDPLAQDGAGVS

In the case of `COCCOc1cnc(N2CCN(CCN(C)c3cc4nc(-c5ncco5)nn4c(N)n3)CC2)nc1` [Compound 3, N^7-(2-{4-[5-(2-methoxyethoxy)pyrimidin-2-yl]piperazin-1-yl}ethyl)-N^7-methyl-2-(1,3-oxazol-2-yl)[1,2,4]triazolo[1,5-c]pyrimidine-5,7-diamine], the Kp at 1 h in data set [1] was found to be 0.04. Also, the pKi in data set [2] was 8.00. In addition, the negative logarithm of the Ki (pKi) in data set [3] was 4.70. In data set [4], the AUC was found to be 376 ng·h/mL, the clearance came to 47 mL/min/kg and the bioavailability came out at 44%.
For `COCCOc1ncc(N2CCN(CCN(C)c3cc4nc(-c5ncco5)nn4c(N)n3)CC2)cc1C(F)(F)F` [Compound 22, N^7-(2-{4-[6-(2-methoxyethoxy)-5-(trifluoromethyl)pyridin-3-yl]piperazin-1-yl}ethyl)-N^7-methyl-2-(1,3-oxazol-2-yl)[1,2,4]triazolo[1,5-c]pyrimidine-5,7-diamine], in data set [1], the partition ratio (Kp) at 1 h is 0.03. Moreover, in data set [2], the pKi was 7.96. In addition, the pKi in data set [3] was 5.50. In data set [4], this molecule displayed an AUC of 280 ng·h/mL, a clearance of 38 mL/min/kg and a bioavailability of 25%.
In the case of `[2H]C([2H])([2H])OC([2H])([2H])C([2H])([2H])Oc1ccc(N2C([2H])([2H])C([2H])([2H])N(C([2H])([2H])C([2H])([2H])N(c3cc4nc(-c5ncco5)nn4c(N)n3)C([2H])([2H])[2H])C([2H])([2H])C2([2H])[2H])cc1` [Compound 20, N^7-(^2H3)methyl-N^7-[2-{4-[4-({2-[(^2H3)methyloxy](^2H4)ethyl}oxy)phenyl](^2H8)piperazin-1-yl}(^2H4)ethyl]-2-(1,3-oxazol-2-yl)[1,2,4]triazolo[1,5-c]pyrimidine-5,7-diamine], the concentration ratio (Kp) at 1 h in data set [1] was 0.05. Further, the pKi in data set [2] was 8.22. The pKi in data set [3] was < 4.00. In data set [4], this molecule had an AUC of 1170 ng·h/mL, a clearance of 17 mL/min/kg and a bioavailability of 50%.
Consider `[2H]C([2H])([2H])OCCOc1ccc(N2CCN(CCN(c3cc4nc(-c5ncco5)nn4c(N)n3)C([2H])([2H])[2H])CC2)cc1` [Compound 8, N^7-(^2H3)methyl-N^7-{2-[4-(4-{2-[(^2H3)methyloxy]ethoxy}phenyl)piperazin-1-yl]ethyl}-2-(1,3-oxazol-2-yl)[1,2,4]triazolo[1,5-c]pyrimidine-5,7-diamine], for which, in data set [1], the Kp at 1 h was 0.04. Moreover, the pKi in data set [2] was 8.40. The pKi in data set [3] was < 5.40. Further, in data set [4], the AUC was 1200 ng·h/mL, the clearance was found to be 22 mL/min/kg and the bioavailability was 63%.
Take `COCCOc1cnc(N2CCN3[C@H](CC[C@H]3CN(C)c3cc4nc(-c5ncco5)nn4c(N)n3)C2)c(F)c1` [Compound 21, N^7—({(6S,8aR)-2-[3-fluoro-5-(2-methoxyethoxy)pyridin-2-yl]octahydropyrrolo[1,2-a]pyrazin-6-yl}methyl)-N^7-methyl-2-(1,3-oxazol-2-yl)[1,2,4]triazolo[1,5-c]pyrimidine-5,7-diamine]: the Kp at 1 h in data set [1] came to 0.05. The pKi in data set [2] was 8.10. Moreover, the negative logarithm of the Ki (pKi) in data set [3] was 5.51. In data set [4], this molecule displayed an AUC of 429 ng·h/mL, a clearance of 30 mL/min/kg and a bioavailability of 31%.
Regarding `[2H]C([2H])([2H])OCCOc1ccc(N2CCN(CCN(C)c3cc4nc(-c5ncco5)nn4c(N)n3)CC2)c(F)c1` [Compound 10, N^7-{2-[4-(2-fluoro-4-{2-[(^2H3)methyloxy]ethoxy}phenyl)piperazin-1-yl]ethyl}-N^7-methyl-2-(1,3-oxazol-2-yl)[1,2,4]triazolo[1,5-c]pyrimidine-5,7-diamine], the Kp at 1 h in data set [1] is 0.09. In data set [2], the negative logarithm of the Ki (pKi) was 8.26. Besides, the pKi in data set [3] is < 5.00. In data set [4], this molecule registered an AUC of 819 ng·h/mL, a clearance of 30 mL/min/kg and a bioavailability of 57%.
Regarding `[2H]C([2H])([2H])OCCOc1ccc(N2CCN(CCN(C)c3cc4nc(-c5ncco5)nn4c(N)n3)CC2)cc1` [Compound 7, N^7-methyl-N^7-{2-[4-(4-{2-[(^2H3)methyloxy]ethoxy}phenyl)piperazin-1-yl]ethyl}-2-(1,3-oxazol-2-yl)[1,2,4]triazolo[1,5-c]pyrimidine-5,7-diamine], the Kp at 1 h in data set [1] came to 0.07. For the same molecule, the pKi in data set [2] was 7.89. Also, the pKi in data set [3] was < 5.40. In data set [4], the AUC was found to be 1020 ng·h/mL, the clearance amounted to 24 mL/min/kg and the bioavailability was found to be 60%.
As to `[2H]C([2H])([2H])OC([2H])([2H])C([2H])([2H])Oc1ccc(N2CCN(CCN(C)c3cc4nc(-c5ncco5)nn4c(N)n3)CC2)cc1` [Compound 12, N^7-methyl-N^7-(2-{4-[4-({2-[(^2H3)methyloxy](^2H4)ethyl}oxy)phenyl]piperazin-1-yl}ethyl)-2-(1,3-oxazol-2-yl)[1,2,4]triazolo[1,5-c]pyrimidine-5,7-diamine], in data set [1], the Kp at 1 h came to 0.03. The negative-log Ki (pKi) in data set [2] was 8.40. Also, the negative logarithm of the Ki (pKi) in data set [3] was < 4.00. In addition, in data set [4], the AUC is 1000 ng·h/mL, the clearance stood at 23 mL/min/kg and the bioavailability turned out to be 56%.
